Measurements from patent US12338243B2, “P2X7 modulators” (JANSSEN PHARMACEUTICA NV, priority 2014, dated 2025).

How the values were obtained:
P2X7 = target: T1, P2X7 (Homo sapiens, UniProt Q99572); assay: Ca2+ flux (FLIPR) in 1321N1 cells expressing recombinant human P2X7 channel; format: cell-based; set-up: expressed in transfected cells; host or cells: 1321N1 cells; conditions: 250 μM BzATP
T1 sequence (Q99572 1-595): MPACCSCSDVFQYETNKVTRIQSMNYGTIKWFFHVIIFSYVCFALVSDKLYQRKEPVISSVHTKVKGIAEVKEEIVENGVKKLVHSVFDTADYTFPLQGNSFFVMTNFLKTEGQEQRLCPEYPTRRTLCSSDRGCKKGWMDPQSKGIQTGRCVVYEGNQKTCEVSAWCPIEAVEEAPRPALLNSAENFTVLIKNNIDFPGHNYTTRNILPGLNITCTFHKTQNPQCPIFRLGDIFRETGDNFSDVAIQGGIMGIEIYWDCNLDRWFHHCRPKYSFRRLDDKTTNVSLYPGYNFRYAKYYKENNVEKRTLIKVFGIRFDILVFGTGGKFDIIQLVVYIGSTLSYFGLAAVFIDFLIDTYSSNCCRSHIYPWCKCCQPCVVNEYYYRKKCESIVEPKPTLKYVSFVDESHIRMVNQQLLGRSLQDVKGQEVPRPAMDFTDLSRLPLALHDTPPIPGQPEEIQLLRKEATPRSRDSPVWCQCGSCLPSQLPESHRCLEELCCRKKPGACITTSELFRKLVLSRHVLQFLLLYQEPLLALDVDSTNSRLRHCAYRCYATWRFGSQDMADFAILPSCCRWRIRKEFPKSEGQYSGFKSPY
Procedure: P2X7 Antagonism in Recombinant Human P2X7 Cells or Recombinant Rat P2X7 Cells: (a) Ca^2+ Flux and (b) Radioligand Binding
(a) Ca^2+ flux: 1321N1 cells expressing the recombinant human or rat P2X7 channel was cultured in HyQ DME/(HyClone/Dulbecco's Modified Eagle Medium) high glucose supplemented with 10% Fetal Bovine Serum (FBS) and appropriate selection marker. Cells were seeded at a density of 25000 cells/well (96-well clear bottom black walled plates) in 100 μl volume/well. On the day of the experiment, cell plates were washed with assay buffer, containing (in mM): 130 NaCl, 2 KCl, 1 CaCl2), 1 MgCl2, 10 HEPES, 5 glucose; pH 7.40 and 300 mOs. After the wash, cells were loaded with the Calcium-4 dye (Molecular Device) and incubated in the dark for 60 minutes. Test compounds were prepared at 250× the test concentration in neat DMSO. Intermediate 96-well compound plates were prepared by transferring 1.2 μL of the compound into 300 μL of assay buffer. A further 3× dilution occurred when transferring 50 μL/well of the compound plate to 100 μL/well in the cell plate. Cells were incubated with test compounds and dye for 30 minutes. […] The fluorescence change was measured 180 seconds after adding the agonist.

rat P2X7 = target: T2, rat P2X7 (Rattus norvegicus, UniProt Q64663); assay: Ca2+ flux (FLIPR) in 1321N1 cells expressing recombinant rat P2X7 channel; conditions: FLIPR (rat) IC50 (μM), 250 μM BzATP
T2 sequence (Q64663 1-595): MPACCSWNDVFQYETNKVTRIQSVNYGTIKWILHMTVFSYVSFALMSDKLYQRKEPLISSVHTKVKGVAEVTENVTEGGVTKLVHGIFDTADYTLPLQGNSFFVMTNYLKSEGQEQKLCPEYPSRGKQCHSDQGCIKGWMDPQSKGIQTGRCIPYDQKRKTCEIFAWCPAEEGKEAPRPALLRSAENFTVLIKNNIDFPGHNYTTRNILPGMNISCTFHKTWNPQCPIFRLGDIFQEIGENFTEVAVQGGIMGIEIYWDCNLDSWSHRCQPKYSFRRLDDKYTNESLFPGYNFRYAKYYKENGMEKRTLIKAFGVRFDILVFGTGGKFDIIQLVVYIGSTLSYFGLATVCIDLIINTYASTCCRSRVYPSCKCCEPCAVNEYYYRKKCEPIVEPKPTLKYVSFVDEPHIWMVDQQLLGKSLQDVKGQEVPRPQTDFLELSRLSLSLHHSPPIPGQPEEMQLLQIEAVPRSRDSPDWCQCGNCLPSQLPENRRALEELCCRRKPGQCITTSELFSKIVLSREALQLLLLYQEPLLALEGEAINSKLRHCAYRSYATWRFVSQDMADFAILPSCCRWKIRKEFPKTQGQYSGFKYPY

Row | SMILES | IC50 (P2X7) | IC50 (rat P2X7)
1 | C[C@H]1Cn2c(nnc2-c2cccc(F)c2)CN1C(=O)c1cccc(Cl)c1Cl [Example 41, (S)-(2,3-dichlorophenyl)(3-(3-fluorophenyl)-6-methyl-5,6-dihydro-[1,2,4]triazolo[4,3-a]pyrazin-7(8H)-yl)methanone] | > 10 µM | 10.7 µM
2 | C[C@H]1Cn2c(nnc2-c2ccc(F)c(F)c2)CN1C(=O)c1cccc(Cl)c1Cl [Example 47, (S)-(2,3-dichlorophenyl)(3-(3,4-difluorophenyl)-6-methyl-5,6-dihydro-[1,2,4]triazolo[4,3-a]pyrazin-7(8H)-yl)methanone] | 10.4 µM | 1.61 µM
3 | O=C(c1cccc(C(F)(F)F)c1Cl)N1CCn2c(nnc2C(F)(F)F)C1c1ccn[nH]1 (racemic) [Example 126, (±)-(8-(1H-pyrazol-5-yl)-3-(trifluoromethyl)-5,6-dihydro-[1,2,4]triazolo[4,3-a]pyrazin-7(8H)-yl)(2-chloro-3-(trifluoromethyl)phenyl)methanone] | 1.55 µM | > 10 µM
4 | CC(C)c1nnc2n1CCN(C(=O)c1cccc(C(F)(F)F)c1Cl)[C@H]2c1ccccc1 [Example 89, (S)-(2-chloro-3-(trifluoromethyl)phenyl)(3-isopropyl-8-phenyl-5,6-dihydro-[1,2,4]triazolo[4,3-a]pyrazin-7(8H)-yl)methanone] | 0.98 µM | > 10 µM
5 | CC1Cn2c(nnc2C(F)(F)F)C(c2ccccc2)N1C(=O)c1cccc(C(F)(F)F)c1Cl (racemic) [Example 130, (±)-(2-chloro-3-(trifluoromethyl)phenyl)(6-methyl-8-phenyl-3-(trifluoromethyl)-5,6-dihydro-[1,2,4]triazolo[4,3-a]pyrazin-7(8H)-yl)methanone] | > 10 µM | > 10 µM
6 | CC(C)(C)c1nnc2n1CCN(C(=O)c1cccc(C(F)(F)F)c1Cl)[C@H]2c1ccccc1 [Example 82, (S)-(3-(tert-butyl)-8-phenyl-5,6-dihydro-[1,2,4]triazolo[4,3-a]pyrazin-7(8H)-yl)(2-chloro-3-(trifluoromethyl)phenyl)methanone] | 0.959 µM | 1.85 µM
7 | Cc1nnc2n1CCN(C(=O)c1cccc(C(F)(F)F)c1Cl)[C@H]2c1ccccn1 [Example 92, (S)-(2-chloro-3-(trifluoromethyl)phenyl)(3-methyl-8-(pyridin-2-yl)-5,6-dihydro-[1,2,4]triazolo[4,3-a]pyrazin-7(8H)-yl)methanone] | 0.755 µM | 17.7 µM
8 | CC1c2nnc(C3CC3)n2CCN1C(=O)c1cccc(C(F)(F)F)c1Cl (stereo not drawn) [Example 65, (2-chloro-3-(trifluoromethyl)phenyl)(3-cyclopropyl-8-methyl-5,6-dihydro-[1,2,4]triazolo[4,3-a]pyrazin-7(8H)-yl)methanone] | > 10 µM | > 10 µM
9 | C[C@H]1Cn2c(nnc2-c2cccc(F)c2F)CN1C(=O)c1ccc(F)c(Cl)c1Cl [Example 46, (S)-(2,3-dichloro-4-fluorophenyl)(3-(2,3-difluorophenyl)-6-methyl-5,6-dihydro-[1,2,4]triazolo[4,3-a]pyrazin-7(8H)-yl)methanone] | 2.54 µM | 2.42 µM
10 | Cc1nnc2n1CCN(C(=O)c1cccc(Cl)c1Cl)[C@H]2c1ccccn1 [Example 113, (S)-(2,3-dichlorophenyl)(3-methyl-8-(pyridin-2-yl)-5,6-dihydro-[1,2,4]triazolo[4,3-a]pyrazin-7(8H)-yl)methanone] | 3.81 µM | > 10 µM
11 | O=C(c1ccc(F)cc1Cl)N1CCn2c(nnc2C(F)(F)F)[C@H]1c1ccccc1 [Example 118, (R)-(2-chloro-4-fluorophenyl)(8-phenyl-3-(trifluoromethyl)-5,6-dihydro-[1,2,4]triazolo[4,3-a]pyrazin-7(8H)-yl)methanone] | 0.921 µM | 19.6 µM
12 | C[C@H]1Cn2c(nnc2-c2cccc(F)c2F)CN1C(=O)c1cccc(C(F)(F)F)c1Cl [Example 45, (S)-(2-chloro-3-(trifluoromethyl)phenyl)(3-(2,3-difluorophenyl)-6-methyl-5,6-dihydro-[1,2,4]triazolo[4,3-a]pyrazin-7(8H)-yl)methanone] | 1.82 µM | 0.408 µM
13 | O=C(c1ccc(F)c(Cl)c1Cl)N1CCn2c(nnc2C(F)(F)F)[C@@H]1c1ccccc1 [Example 125, (S)-(2,3-dichloro-4-fluorophenyl)(8-phenyl-3-(trifluoromethyl)-5,6-dihydro-[1,2,4]triazolo[4,3-a]pyrazin-7(8H)-yl)methanone] | 11.7 µM | > 10 µM
14 | C[C@H]1Cn2c(nnc2-c2ccc(C(F)(F)F)c(F)c2)CN1C(=O)c1cccc(C(F)(F)F)c1Cl [Example 29, (S)-(2-chloro-3-(trifluoromethyl)phenyl)(3-(3-fluoro-4-(trifluoromethyl)phenyl)-6-methyl-5,6-dihydro-[1,2,4]triazolo[4,3-a]pyrazin-7(8H)-yl)methanone] | 3.55 µM | 2.97 µM
15 | C[C@H]1Cn2c(nnc2-c2ccc(F)cc2F)CN1C(=O)c1ccc(F)c(Cl)c1Cl [Example 52, (S)-(2,3-dichloro-4-fluorophenyl)(3-(2,4-difluorophenyl)-6-methyl-5,6-dihydro-[1,2,4]triazolo[4,3-a]pyrazin-7(8H)-yl)methanone] | 7.05 µM | 2.09 µM
16 | O=C(c1cccc(C(F)(F)F)c1Cl)N1CCn2c(C(F)F)nnc2[C@@H]1c1ccccc1 [Example 109, (S)-(2-chloro-3-(trifluoromethyl)phenyl)(3-(difluoromethyl)-8-phenyl-5,6-dihydro-[1,2,4]triazolo[4,3-a]pyrazin-7(8H)-yl)methanone] | > 10 µM | > 10 µM
17 | CC1c2nnc(-c3ccc(C(F)(F)F)cc3)n2CCN1C(=O)c1cccc(C(F)(F)F)c1Cl (stereo not drawn) [Example 35, (2-chloro-3-(trifluoromethyl)phenyl)(8-methyl-3-(4-(trifluoromethyl)phenyl)-5,6-dihydro-[1,2,4]triazolo[4,3-a]pyrazin-7(8H)-yl)methanone] | > 10 µM | > 10 µM
18 | CC1c2nnc(C3CCCCC3)n2CCN1C(=O)c1cccc(C(F)(F)F)c1Cl (stereo not drawn) [Example 61, (2-chloro-3-(trifluoromethyl)phenyl)(3-cyclohexyl-8-methyl-5,6-dihydro-[1,2,4]triazolo[4,3-a]pyrazin-7(8H)-yl)methanone] | 0.34 µM | > 10 µM
19 | C[C@H]1Cn2c(nnc2-c2ccccc2F)CN1C(=O)c1ccc(F)c(Cl)c1Cl [Example 40, (S)-(2,3-dichloro-4-fluorophenyl)(3-(2-fluorophenyl)-6-methyl-5,6-dihydro-[1,2,4]triazolo[4,3-a]pyrazin-7(8H)-yl)methanone] | 9.04 µM | 14.8 µM
20 | C[C@H]1Cn2c(nnc2-c2ccccc2F)CN1C(=O)c1cccc(C(F)(F)F)c1Cl [Example 39, (S)-(2-chloro-3-(trifluoromethyl)phenyl)(3-(2-fluorophenyl)-6-methyl-5,6-dihydro-[1,2,4]triazolo[4,3-a]pyrazin-7(8H)-yl)methanone] | 2.43 µM | 9.44 µM
21 | O=C(c1cccc(C(F)(F)F)c1Cl)N1CCn2c(C3CC3)nnc2[C@H]1c1ccccc1 [Example 77, (R)-(2-chloro-3-(trifluoromethyl)phenyl)(3-cyclopropyl-8-phenyl-5,6-dihydro-[1,2,4]triazolo[4,3-a]pyrazin-7(8H)-yl)methanone] | 0.589 µM | 1.11 µM
